Laboratory results reported in publication PMC5775428, “Towards an experimental classification system for membrane active peptides” (Scientific Reports, 2018).
Where two headings read alike, the source gives them in different places.

Columns and labels:
Xanthomonas campestris = conditions: for Minimum inhibitory concentration, Average: average of triplicates
Procedure, shortened: (§1)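 Peptides were serially diluted from 256 down to 0.5 μM and incubated with the bacterial strains according to CLSI M7-A10. Wells were then inspected by optical microscopy, and MIC assigned where no cells appeared.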

[1] = tested on: Pseudomonas syringae pv. tabaci; conditions: Pseudomonas syringae pv. tabaci; for Minimum inhibitory concentration, Average: average of triplicates
Procedure, shortened: as §1

Pseudomonas aeruginosa = conditions: Pseudomonas aeruginosa; for Minimum inhibitory concentration, Average: average of triplicates
Procedure, shortened: as §1

Escherichia coli = conditions: Escherichia coli; for Minimum inhibitory concentration, Average: average of triplicates
Procedure, shortened: as §1

Bacillus cereus = conditions: Bacillus cereus; for Minimum inhibitory concentration, Average: average of triplicates
Procedure, shortened: as §1

Candida albicans = conditions: Candida albicans; for Minimum inhibitory concentration, Average: average of triplicates
Procedure, shortened: (§2)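 MICs determined per CLSI M7-A10 (bacteria) and M27-A3 (yeasts) protocols, peptides tested at 0.5 to 256 μM. MIC taken as the lowest concentration with no cells seen by optical microscopy; three biological repeats with 2 technical replicates each.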

Staphylococcus aureus = conditions: Staphylococcus aureus; for Minimum inhibitory concentration, Average: average of triplicates
Procedure, shortened: as §1

Erwinia carotovora = conditions: Erwinia carotovora; for Minimum inhibitory concentration, Average: average of triplicates
Procedure, shortened: as §1

Bacillus subtilis = conditions: Bacillus subtilis; for Minimum inhibitory concentration, Average: average of triplicates
Procedure, shortened: as §1

Cryptococcus neoformans = conditions: Cryptococcus neoformans; for Minimum inhibitory concentration, Average: average of triplicates
Procedure, shortened: as §2

[2] = CLSI M27-A3, 0.5 to 256 μM tested, triplicate 1, also published in ref 7

Row | Sequence | Minimum inhibitory concentration (Xanthomonas campestris; CLSI M7-A10, triplicate 1) [µM] | Minimum inhibitory concentration, Average (Xanthomonas campestris) [µM] | Minimum inhibitory concentration (Xanthomonas campestris; triplicate 2) [µM] | Minimum inhibitory concentration (Xanthomonas campestris; triplicate 3) [µM] | Minimum inhibitory concentration ([1]; CLSI M7-A10, triplicate 1) [µM] | Minimum inhibitory concentration, Average [1] [µM] | Minimum inhibitory concentration ([1]; triplicate 2) [µM] | Minimum inhibitory concentration ([1]; triplicate 3) [µM] | Minimum inhibitory concentration (Pseudomonas aeruginosa; CLSI M7-A10, triplicate 1) [µM] | Minimum inhibitory concentration, Average (Pseudomonas aeruginosa) [µM] | Minimum inhibitory concentration (Pseudomonas aeruginosa; triplicate 2) [µM] | Minimum inhibitory concentration (Pseudomonas aeruginosa; triplicate 3) [µM] | Minimum inhibitory concentration (Escherichia coli; CLSI M7-A10, triplicate 1) [µM] | Minimum inhibitory concentration, Average (Escherichia coli) [µM] | Minimum inhibitory concentration (Escherichia coli; triplicate 2) [µM] | Minimum inhibitory concentration (Escherichia coli; triplicate 3) [µM] | Minimum inhibitory concentration (Bacillus cereus; CLSI M7-A10, triplicate 1) [µM] | Minimum inhibitory concentration, Average (Bacillus cereus) [µM] | Minimum inhibitory concentration (Bacillus cereus; triplicate 2) [µM] | Minimum inhibitory concentration (Bacillus cereus; triplicate 3) [µM] | further results
1 | ANRLLEAYKMLLKFLGNLR [Gr02] | 4 | 4.0 | 4 | 4 | 2 | 2.0 | 2 | 2 | 32 | 32.0 | 32 | 32 | 4 | 4.0 | 4 | 4 | 4 | 4.0 | 4 | 4 | Minimum inhibitory concentration (Candida albicans; [2]): 4 µM; Minimum inhibitory concentration, Average (Candida albicans): 4.0 µM; Minimum inhibitory concentration (Candida albicans; triplicate 2): 4 µM; Minimum inhibitory concentration (Candida albicans; triplicate 3): 4 µM; Minimum inhibitory concentration (Staphylococcus aureus; CLSI M7-A10, triplicate 1): 1 µM; Minimum inhibitory concentration, Average (Staphylococcus aureus): 1.0 µM; Minimum inhibitory concentration (Staphylococcus aureus; triplicate 2): 1 µM; Minimum inhibitory concentration (Staphylococcus aureus; triplicate 3): 1 µM; Minimum inhibitory concentration (Erwinia carotovora; CLSI M7-A10, triplicate 1): 1 µM; Minimum inhibitory concentration, Average (Erwinia carotovora): 1.0 µM; Minimum inhibitory concentration (Erwinia carotovora; triplicate 2): 1 µM; Minimum inhibitory concentration (Erwinia carotovora; triplicate 3): 1 µM; Minimum inhibitory concentration (Bacillus subtilis; CLSI M7-A10, triplicate 1): 1 µM; Minimum inhibitory concentration, Average (Bacillus subtilis): 1.0 µM; Minimum inhibitory concentration (Bacillus subtilis; triplicate 2): 1 µM; Minimum inhibitory concentration (Bacillus subtilis; triplicate 3): 1 µM; Minimum inhibitory concentration (Cryptococcus neoformans; CLSI M27-A3, triplicate 1): 2 µM; Minimum inhibitory concentration, Average (Cryptococcus neoformans): 2.7 µM; Minimum inhibitory concentration (Cryptococcus neoformans; triplicate 2): 2 µM; Minimum inhibitory concentration (Cryptococcus neoformans; triplicate 3): 4 µM
2 | GSLHGFMYRYLKNMVLNLF [Cs01] | 64 | 64.0 | 64 | 64 | 16 | 16.0 | 16 | 16 | 32 | 32.0 | 32 | 32 | 32 | 32.0 | 32 | 32 | 64 | 64.0 | 64 | 64 | Minimum inhibitory concentration (Candida albicans; [2]): 2 µM; Minimum inhibitory concentration, Average (Candida albicans): 2.7 µM; Minimum inhibitory concentration (Candida albicans; triplicate 2): 2 µM; Minimum inhibitory concentration (Candida albicans; triplicate 3): 4 µM; Minimum inhibitory concentration (Staphylococcus aureus; CLSI M7-A10, triplicate 1): 4 µM; Minimum inhibitory concentration, Average (Staphylococcus aureus): 4.0 µM; Minimum inhibitory concentration (Staphylococcus aureus; triplicate 2): 4 µM; Minimum inhibitory concentration (Staphylococcus aureus; triplicate 3): 4 µM; Minimum inhibitory concentration (Erwinia carotovora; CLSI M7-A10, triplicate 1): 128 µM; Minimum inhibitory concentration, Average (Erwinia carotovora): 128.0 µM; Minimum inhibitory concentration (Erwinia carotovora; triplicate 2): 128 µM; Minimum inhibitory concentration (Erwinia carotovora; triplicate 3): 128 µM; Minimum inhibitory concentration (Bacillus subtilis; CLSI M7-A10, triplicate 1): 8 µM; Minimum inhibitory concentration, Average (Bacillus subtilis): 8.0 µM; Minimum inhibitory concentration (Bacillus subtilis; triplicate 2): 8 µM; Minimum inhibitory concentration (Bacillus subtilis; triplicate 3): 8 µM; Minimum inhibitory concentration (Cryptococcus neoformans; CLSI M27-A3, triplicate 1): 8 µM; Minimum inhibitory concentration, Average (Cryptococcus neoformans): 8.0 µM; Minimum inhibitory concentration (Cryptococcus neoformans; triplicate 2): 8 µM; Minimum inhibitory concentration (Cryptococcus neoformans; triplicate 3): 8 µM
3 | GFKLGRKLVKVFKWII [Gr01] | 1 | 1.0 | 1 | 1 | 1 | 1.0 | 1 | 1 | 2 | 3.3 | 4 | 4 | 0.5 | 0.5 | 0.5 | 0.5 | 1 | 1.0 | 1 | 1 | Minimum inhibitory concentration (Candida albicans; [2]): 1 µM; Minimum inhibitory concentration, Average (Candida albicans): 1.0 µM; Minimum inhibitory concentration (Candida albicans; triplicate 2): 1 µM; Minimum inhibitory concentration (Candida albicans; triplicate 3): 1 µM; Minimum inhibitory concentration (Staphylococcus aureus; CLSI M7-A10, triplicate 1): 0.5 µM; Minimum inhibitory concentration, Average (Staphylococcus aureus): 0.8 µM; Minimum inhibitory concentration (Staphylococcus aureus; triplicate 2): 1 µM; Minimum inhibitory concentration (Staphylococcus aureus; triplicate 3): 1 µM; Minimum inhibitory concentration (Erwinia carotovora; CLSI M7-A10, triplicate 1): 0.5 µM; Minimum inhibitory concentration, Average (Erwinia carotovora): 0.5 µM; Minimum inhibitory concentration (Erwinia carotovora; triplicate 2): 0.5 µM; Minimum inhibitory concentration (Erwinia carotovora; triplicate 3): 0.5 µM; Minimum inhibitory concentration (Bacillus subtilis; CLSI M7-A10, triplicate 1): 1 µM; Minimum inhibitory concentration, Average (Bacillus subtilis): 1.0 µM; Minimum inhibitory concentration (Bacillus subtilis; triplicate 2): 1 µM; Minimum inhibitory concentration (Bacillus subtilis; triplicate 3): 1 µM; Minimum inhibitory concentration (Cryptococcus neoformans; CLSI M27-A3, triplicate 1): 1 µM; Minimum inhibitory concentration, Average (Cryptococcus neoformans): 1.0 µM; Minimum inhibitory concentration (Cryptococcus neoformans; triplicate 2): 1 µM; Minimum inhibitory concentration (Cryptococcus neoformans; triplicate 3): 1 µM
